Target: T1, AhR (Mus musculus, UniProt P30561)
T1 construct: made in house; host or cells: coupled transcription/translation in rabbit reticulocyte lysate (TNT, Promega), 35S-labelled
T1 sequence (P30561 10-848): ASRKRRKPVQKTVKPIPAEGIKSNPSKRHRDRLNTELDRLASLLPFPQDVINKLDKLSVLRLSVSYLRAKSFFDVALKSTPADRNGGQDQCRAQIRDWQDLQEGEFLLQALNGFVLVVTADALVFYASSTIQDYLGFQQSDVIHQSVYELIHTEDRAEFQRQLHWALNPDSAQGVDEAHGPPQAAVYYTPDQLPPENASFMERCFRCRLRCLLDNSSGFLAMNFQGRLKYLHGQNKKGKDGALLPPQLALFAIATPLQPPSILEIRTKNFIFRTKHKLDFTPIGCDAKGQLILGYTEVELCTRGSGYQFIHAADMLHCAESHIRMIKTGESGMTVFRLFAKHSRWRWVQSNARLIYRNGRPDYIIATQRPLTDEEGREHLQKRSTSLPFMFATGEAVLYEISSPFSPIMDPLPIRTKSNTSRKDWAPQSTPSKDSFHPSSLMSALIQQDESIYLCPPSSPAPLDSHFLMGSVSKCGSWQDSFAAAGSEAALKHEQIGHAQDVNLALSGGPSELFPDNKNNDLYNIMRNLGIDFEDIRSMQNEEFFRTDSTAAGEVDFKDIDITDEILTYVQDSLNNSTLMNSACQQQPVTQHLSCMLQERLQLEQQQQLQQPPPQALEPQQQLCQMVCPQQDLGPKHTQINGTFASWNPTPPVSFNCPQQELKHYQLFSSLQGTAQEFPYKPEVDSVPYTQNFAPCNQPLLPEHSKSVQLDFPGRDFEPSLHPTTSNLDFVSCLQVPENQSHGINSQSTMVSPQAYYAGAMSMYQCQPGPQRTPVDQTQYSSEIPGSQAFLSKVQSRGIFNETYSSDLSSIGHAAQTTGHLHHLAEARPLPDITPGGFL
Experiment: Affinity chromatography on EGCG-conjugated Sepharose, in vitro translated AhR
Type: binding, murine
Conditions: 35S-AhR in vitro translated in RRL
Source text: Murine AhR and ARNT cDNA (obtained from J. Whitlock and O. Hankinson, respectively) were inserted into pcDNA3 (Invitrogen, Carlsbad, Calif.). Chicken hsp90 constructs (FIG. 5), c90711hsp (wild-type), c90G94D (wild-type point mutant gly94→Asp (Grenert et al., J. Biol. Chem. 272:23843-23850 (1997), which is hereby incorporated by reference in its entirety), c90D92A (wild-type point mutant Asp92→Ala (Sullivan et al., J. Biol. Chem. 268:20373-20379 (1993), which is hereby incorporated by reference in its entirety), c90N221 (wild-type truncation mutant encoding a.a. 221-728 (Sullivan et al., J. Biol. Chem. 268:20373-20379 (1993), which is hereby incorporated by reference in its entirety)), c90N303 (a.a. 303-728) and c90N538 (a.a. 538-728) were kind gifts from Dr. D. Toft (Rochester, Minn.). The C-terminal truncation mutant c900507 (a.a. 1-221) was obtained from Dr. L. Neckers (Rockville, Md.) (Grenert et al., J. Biol. Chem. 272:23843-23850 (1997); Marcu et al., J. Biol. Chem. 275:37181-37186 (2000), which are hereby incorporated by reference in their entirety). Human p23 cDNA was excised from pQE80-p23 (obtained from W. Chan Stockton, Calif.) by sequential digests using the restriction enzymes Sad (3′-end) and BamHI (5′-end) and inserted into the similarly digested pET28a (Novagen, Madison, Wis.). […]

O=C(O[C@@H]1Cc2c(O)cc(O)cc2O[C@@H]1c1cc(O)c(O)c(O)c1)c1cc(O)c(O)c(O)c1 [EGCG, epigallocatechin gallate]
binding of AhR to immobilized EGCG: not able to bind immobilized EGCG
